Data taken from USRE42700E1, “Induction of apoptosis in cancer cells” (Sanford-Burnham Medical Research Institute, priority 2001, dated 2011).

Tests used:
[1] = system: human MX-1 breast adenocarcinoma cells; experiment: MX-1 human mammary adenocarcinoma growth in SCID mice; assay type: in vivo
[2] = CFU-GM colony formation, mouse bone marrow; assay type: cell-based; conditions: mouse, bone marrow CFU-GM progenitor cells
Experimental: (§1) CFU-GM Colony Formation: The CFU-GM colony assay was performed as described in Parchment et al., (J. Natl. Cancer Inst. 86: 273-280 (1994)).

[3] = system: mouse CFU-GM; experiment: CFU-GM colony formation, mouse bone marrow; assay type: cell-based
Experimental: as §1

[4] = system: patient leukemic cells; experiment: apoptosis of patient leukemic cells by tunnel assay and flow cytometry; assay type: cell-based, human; conditions: for apoptotic cells: 1 μM, 24 hours
Experimental: (§2) Apoptosis Quantification: Staining of apoptotic cells was performed as described by Gavreli, Y., et al., (J. Cell. Biol. 119: 493-501 (1992)) and Whitacre, C. M., et al., (Cancer Res. 55: 3697-3701 (1995)). After 3-Cl-AHPC treatment, cells were harvested, washed with PBS and resuspended at 1×10^6 cells/ml. Cell suspensions (50 μl) were stained with […] of acridine orange solution ([…]) in PBS in the dark. Cells displaying fragmented DNA were detected using a fluorescent microscope. Apoptotic cells were also detected using a kit. Cells that incorporated fluorescein labeled deoxyuridine triphosphate were detected using flow cytometry.
Flow Cytometry: Flow cytometry was performed on a flow cytometer equipped with an argon ion laser tuned to 15 mW at […] for fluorescence excitation and light scattering. Fluorescein isothiocyanate (FITC) fluorescence was detected using a 530/30 nm band pass filter and propidium iodide (PI) fluorescence was reflected with a 560-nm short pass dichroic filter using a 585/42-nm band pass filter. The doublet discrimination module was used to identify cell aggregates (Sharpless, T., et al., Acta Cytologica 19: 577-581 (1975)). Typically, 20,000 events of list mode data were saved and analyzed.

[5] = system: Bcl-2 and Mcl-1 in patient leukemic cells and M07e cells; experiment: Bcl-2 and Mcl-1 expression; assay type: cell-based, human; conditions: during 3-Cl-AHPC-mediated apoptosis
Experimental: Western Blots: Western blots were performed according to the protocol of Sheikh, M. S., et al., (Oncogene, 9: 3407-3415 (1994)). Logarithmically growing cells were treated with 3-Cl-AHPC for various times and cells were harvested and lysed in Laemmli lysis buffer (0.5 M Tris-HCl, pH 6.8, 0.002M EDTA, 10% glycerol, 10% sodium dodecyl sulfate (SDS), and 5% β-mercaptoethanol). Protein lysates (50 μg/lane) were electrophoresed on 12% SDS-polyacrylamide gels and transferred to nitrocellulose membranes. Membranes were blocked with 5% nonfat dried milk in PBS/0.5% Tween 20 and then incubated with the appropriate antibodies. Horseradish peroxidase-conjugated rabbit anti-mouse IgG was used as the secondary antibody, and bands were developed using the Amersham ECL non-radioactive method.

[6] = system: leukemic blasts from patients (AML or CML in blast crisis); experiment: apoptosis in primary cultures of patient leukemic blasts; assay type: cell-based, human
Experimental: Cell Growth: IL-3-transfected M07e cells have been described by Thacker, D. J., et al., Leukemia 8: 871-877 (1994). Cells were grown in RPMI supplemented with 5 percent heat-inactivated fetal bovine serum (FBS) and 25 μg/ml gentamycin in a […], 5% CO2, and 100% humidity environment. Leukemic cells were obtained from patients who met the criteria for the diagnosis of AML or CML in blast crisis (see Table 1). Studies were approved by the Wayne State University Institutional Review Board. Informed consent was obtained from all patients. Leukemic blasts from patients were isolated using Ficoll hypaque. Cells at the interface between plasma and red blood cells were diluted with sterile PBS, then layered over Ficoll hypaque (1.077 density), and the leukemic cells collected at the interface. The sample to be studied represented greater than 90% blasts. The patient leukemia samples were grown in RPMI medium supplemented with 10% FBS, gentamycin (25 μg/ml), IL-3 (20 ng/ml), SCF (25 ng/ml), GM-CSF (20 ng/ml) and G-CSF (20 ng/ml). Cell growth was assessed using a cell proliferation kit.
as §2

[7] = system: caspases in patient leukemic cells; experiment: caspase activation in patient leukemic cells; assay type: cell-based, human; conditions: 1 μM
Experimental: Activation of caspases-1, -2, -3, -6, -8 and -9 was assessed using a caspase activation kit.

[8] = system: mouse mammary adenocarcinoma 16/C; experiment: mouse mammary adenocarcinoma 16/C in syngeneic female C3H mice
Experimental: The ability of 3-Cl-AHPC to inhibit the in vivo growth of breast carcinoma cells was tested using syngeneic mouse mammary and human breast adenocarcinoma SCID xenograft models.

[9] = system: MDA-MB-468; experiment: apoptosis induction / cell death in breast cancer cells; assay type: cell-based, human
[10] = system: prostate cancer LNCaP, lung cancer NCI-H460, breast cancer ZR-75-1 and MDA-MB231 cells; experiment: DAPI staining apoptosis in cancer cell lines; assay type: cell-based; conditions: 10^−6 M
Experimental: In FIG. 11, the indicated cancer cells were treated with 10^−6 M 3-Cl-AHPC, trypsinized, washed with PBS, fixed with 3.7% paraformaldehyde, and stained with 50 μg/ml DAPI containing 100 μg/ml DNase-free RNase A to visualize nuclei by fluorescent microscopy. The number of apoptotic cells with nuclear morphology typical of apoptosis, including nuclear fragmentation and condensation, was scored in at least 400 cells in each sample using a fluorescence microscope. In FIG. 12, the indicated cancer cells were treated with 10^−6 M 3-Cl-AHPC, trypsinized, washed with PBS, fixed with 3.7% paraformaldehyde, and stained with 50 μg/ml DAPI containing 100 μg/ml DNase-free RNase A to visualize nuclei and examined by fluorescent microscopy. Number of apoptotic cells with nuclear morphology typical of apoptosis, including nuclear fragmentation and condensation, was scored in at least 400 cells in each sample using a fluorescence microscope.

[11] = total dose 44 mg/kg, days 1-4, 6-8
[12] = total dose 89 mg/kg, days 1-4, 6-8
[13] = total dose 178 mg/kg, days 1-4, 6, 8

SMILES: O=C(O)/C=C/c1ccc(-c2ccc(O)c(C34CC5CC(CC(C5)C3)C4)c2)c(Cl)c1 [Example 3-Cl-AHPC, (E)-4-[3-(1-Adamantyl)-4-hydroxyphenyl]-3-chlorocinnamic acid]
- animal deaths ([1]; dose not stated (Table 5)): no animal deaths
- inhibition of tumor growth ([1]; dose not stated (Table 5)): 70%
- weight loss ([1]; dose not stated (Table 5)): less than 4%
- % body wt loss ([1]; total dose 91 mg/kg, Qd (3-9)): −2%
- Drug deaths ([1]; total dose 91 mg/kg, Qd (3-9)): 0/5
- T/C % ([1]; total dose 91 mg/kg, Qd (3-9)): 62%
- % body wt loss ([1]; total dose 140 mg/kg, Qd (3-9)): −4%
- Drug deaths ([1]; total dose 140 mg/kg, Qd (3-9)): 0/5
- T/C % ([1]; total dose 140 mg/kg, Qd (3-9)): 56%
- % body wt loss ([1]; total dose 210 mg/kg, Qd (3-9)): −4%
- Drug deaths ([1]; total dose 210 mg/kg, Qd (3-9)): 0/5
- Log cell kill ([1]; total dose 210 mg/kg, Qd (3-9)): 1.2
- T/C % ([1]; total dose 210 mg/kg, Qd (3-9)): 30%
- IC90 [2]: 0.315 to 0.794 µM
- toxicity to mouse relative to human CFU-GM [3]: 30 fold
- patient leukemic cells that underwent apoptosis [4]: over 80%
- apoptotic cells ([4]; patient 1): 67%
- apoptotic cells ([4]; patient 10): 80%
- modulation of Bcl-2 and Mcl-1 expression [5]: no modulation of their expression
- apoptosis of leukemic blasts ([6]; 0.5 μM): 60%
- induction of apoptosis ([6]; 1 μM, 11 primary cultures): > 80%
- apoptosis of leukemic blasts ([6]; 0.2 and 0.1 μM): minimal apoptosis
- proliferation and apoptosis of primary human AML cultures (FIG. 13) ([6]; non-APL AML samples): inhibited the proliferation and induced apoptosis
- concentration required to induce apoptosis ([6]; patient leukemic cells): 0.5 µM
- activation of caspase-2 [7]: 6 fold
- activation of caspase-5 [7]: two-fold
- activation of caspase-6 [7]: 4 fold
- activation of caspase-8 [7]: 4 fold
- activation of caspase-9 [7]: two-fold
- activation of caspase-3 ([7]; 24 hours): 8 fold
- activation of caspase-3 ([7]; 48 hours): 14 fold
- inhibition of tumor growth ([8]; T/C=20%): 80%
- toxicity as evidenced by weight loss of the mice ([8]; compared to AHPN): minimal toxicity
- % body wt. loss [8, 11]: 4%
- Drug deaths [8, 11]: 0/5
- T/C % [8, 11]: >100%
- % body wt. loss [8, 12]: −3%
- Drug deaths [8, 12]: 0/5
- T/C % [8, 12]: 47%
- % body wt. loss [8, 13]: −4%
- Drug deaths [8, 13]: 0/5
- Log cell kill [8, 13]: 0.9
- T/C % [8, 13]: 20%
- ED50 (concentration that results in 50% cell death) [9]: 0.71 µM
- induction of apoptosis (DAPI staining) [10]: potently induced apoptosis
